In ChEMBL document CHEMBL1201862, “PubChem BioAssay data set” (2004):
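A five-concentration, 48-hour dose response in 96-well plates underlies each endpoint, interpolated linearly between surrounding concentrations. GI50: concentration for 50% inhibition of growth.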 The source made the active and inactive calls. Cut-off read from the data, not from the text of the source: active = GI50 up to about 1.1 µM and inactive = higher.

Legend:
Experiment in all cases: DTP human tumour cell line panel, 48 h
A549 = tested on: A549
CCRF-CEM = tested on: CCRF-CEM
EKVX = tested on: EKVX
HCT-15 = tested on: HCT-15
HL-60 = tested on: HL-60
MOLT-4 = tested on: MOLT-4
Malme-3M = tested on: Malme-3M
NCI-H226 = tested on: NCI-H226
NCI-H522 = tested on: NCI-H522
NCI/ADR-RES = tested on: NCI/ADR-RES
OVCAR-5 = tested on: OVCAR-5
OVCAR-8 = tested on: OVCAR-8
SF-268 = tested on: SF-268
SF-539 = tested on: SF-539
SK-MEL-28 = tested on: SK-MEL-28
SK-OV-3 = tested on: SK-OV-3
SNB-19 = tested on: SNB-19
T47D = tested on: T47D
U-251 = tested on: U-251

SMILES	GI50 (A549)	GI50 (CCRF-CEM)	GI50 (EKVX)	GI50 (HCT-15)	GI50 (HL-60)	GI50 (MOLT-4)	GI50 (Malme-3M)	GI50 (NCI-H226)	GI50 (NCI-H522)	GI50 (NCI/ADR-RES)	GI50 (OVCAR-5)	GI50 (OVCAR-8)	GI50 (SF-268)	GI50 (SF-539)	GI50 (SK-MEL-28)	GI50 (SK-OV-3)	GI50 (SNB-19)	GI50 (T47D)	GI50 (U-251)
CCCCCC/C=C\CCCCCCCCCc1cccc(OC)c1O	> 100 µM (inactive)	> 100 µM (inactive)	> 100 µM (inactive)	> 100 µM	> 100 µM (inactive)	> 100 µM (inactive)	> 100 µM (inactive)	> 100 µM (inactive)	47.1 µM (inactive)	41.2 µM (inactive)	> 100 µM (inactive)	38.3 µM (inactive)	> 100 µM (inactive)	> 100 µM (inactive)	> 100 µM (inactive)	> 100 µM (inactive)	> 100 µM (inactive)	> 100 µM (inactive)	> 100 µM (inactive)
CCC(=O)Nc1ccc(NS(=O)(=O)c2ccc(Cl)cc2)cc1	> 100 µM (inactive)	> 100 µM (inactive)	39.8 µM (inactive)	> 100 µM	28.2 µM (inactive)	34.5 µM (inactive)	> 100 µM (inactive)	19.5 µM (inactive)	> 100 µM (inactive)	> 100 µM (inactive)	> 100 µM (inactive)	> 100 µM (inactive)	> 100 µM (inactive)	> 100 µM (inactive)	> 100 µM (inactive)	> 100 µM (inactive)	> 100 µM (inactive)	> 100 µM (inactive)	–
COc1ccc(Cc2nc3cc(C(F)(F)F)ccc3n2C[C@@H]2CCCN3CCCCC23)cc1 (some centres undefined)	9.02 µM (inactive)	11.1 µM (inactive)	13.6 µM (inactive)	14.2 µM	4.81 µM (inactive)	6.84 µM (inactive)	3.18 µM (inactive)	18.1 µM (inactive)	7 µM (inactive)	14.2 µM (inactive)	13.7 µM (inactive)	15.3 µM (inactive)	–	13.5 µM (inactive)	13 µM (inactive)	15.1 µM (inactive)	13.4 µM (inactive)	6.04 µM (inactive)	13.2 µM (inactive)
O=C(/C=N/O)c1c(-c2ccccc2)[nH]c(-c2ccccc2)c1-c1ccccc1	14.1 µM (inactive)	16.6 µM (inactive)	3.71 µM (inactive)	17.9 µM	5.98 µM (inactive)	2.37 µM (inactive)	18.3 µM (inactive)	26.2 µM (inactive)	13.8 µM (inactive)	6.78 µM (inactive)	0.228 µM (active)	–	19.3 µM (inactive)	13.2 µM (inactive)	17.8 µM (inactive)	16.1 µM (inactive)	15.3 µM (inactive)	17.1 µM (inactive)	14.5 µM (inactive)
COc1cc(O)c(/C=N/N=C(\N)NO)c(OC)c1	> 10 µM (inactive)	5.57 µM (inactive)	> 10 µM (inactive)	5.04 µM	> 10 µM (inactive)	–	> 10 µM (inactive)	5.11 µM (inactive)	> 10 µM (inactive)	5.04 µM (inactive)	> 10 µM (inactive)	> 10 µM (inactive)	> 10 µM (inactive)	> 10 µM (inactive)	> 10 µM (inactive)	> 10 µM (inactive)	> 10 µM (inactive)	> 10 µM (inactive)	> 10 µM (inactive)
CC1=C2C3=C(C)C(=O)C(C)(C)CC[C@@]3(C)[C@]2(C)CCC(C)(C)C1=O	> 100 µM (inactive)	> 100 µM (inactive)	> 100 µM (inactive)	> 100 µM	> 100 µM (inactive)	> 100 µM (inactive)	> 100 µM (inactive)	> 100 µM (inactive)	> 100 µM (inactive)	> 100 µM (inactive)	> 100 µM (inactive)	> 100 µM (inactive)	> 100 µM (inactive)	> 100 µM (inactive)	–	> 100 µM (inactive)	> 100 µM (inactive)	> 100 µM (inactive)	> 100 µM (inactive)
